Reference: publication PMC3954902 (Journal of medicinal chemistry, 2013)

What was measured:
[1] = tested on: HCV genotype 1b subgenomic replicon in Huh-5-2 cells; assay: Replicon assay on Huh5-2; type: cell-based, Hepatitis C virus; settings: for Replicon assay on Huh5-2 SI (ratio of CC50 to EC50): Huh-5-2 cells; for anti-HCV activity and toxicity in words: Huh-5-2 replicon and MTS
recombinant HCV NS5BCΔ21 = recombinant HCV NS5BCΔ21 (Hepatitis C virus genotype 1b, UniProt O92972); assay: NS5B polymerase primer-dependent elongation assay; type: biochemical, HCV genotype 1b (HC-J4); settings: for fold reduction in potency against NS5B relative to derivative 8: ratio of IC50 values vs 8
NS5B = settings: read-out: NS5B IC50 reported by Kumar et al.; literature value; cited from earlier work
Huh-9-13 cells = assay: MTS assay and microscopic analysis on Huh 9-13 cells; type: cell-based

## Cc1ccc(COC(=O)c2cn(Cc3ccc(C(F)(F)F)cc3F)c3cc(Cl)c(N)cc3c2=O)cc1 [Compound 4, 4-Methylbenzyl 6-amino-7-chloro-1-[2-fluoro-4-(trifluoromethyl)benzyl]-4-oxo-1,4-dihydro-3-quinolinecarboxylate]
[1]
  Replicon assay on Huh5-2 SI (ratio of CC50 to EC50): >2.5
  anti-HCV activity and toxicity in words: neither active nor toxic

## CN1CCN(c2cc3c(cc2N)c(=O)c(C(=O)OCc2ccc(Cl)cc2)cn3Cc2ccc(Cl)cc2)CC1 [Compound 7, 4-Chlorobenzyl 6-amino-1-(4-chlorobenzyl)-7-(4-methyl-1-piperazinyl)-4-oxo-1,4-dihydro-3-quinolinecarboxylate]
Recombinant HCV NS5BCΔ21; head to head, same assay conditions
  fold higher NS5B inhibition than reference compound 2: 5 fold

## Nc1cc2c(=O)c(C(=O)O)cn(Cc3ccc(Cl)cc3)c2cc1N1CCN(c2ccccn2)CC1 [Compound 28, 6-amino-1-(4-chlorobenzyl)-4-oxo-7-[4-(2-pyridinyl)-1-piperazinyl]-1,4-dihydro-3-quinolinecarboxylic acid]
Recombinant HCV NS5BCΔ21
  fold reduction in potency against NS5B relative to derivative 8: 345 fold
[1]
  Replicon assay on Huh5-2 SI (ratio of CC50 to EC50): >28

## CCOC(=O)c1cn(Cc2ccc(Cl)cc2)c2cc(N3CCN(c4ccccn4)CC3)c(N)cc2c1=O [Compound 27, Ethyl 6-amino-1-(4-chlorobenzyl)-4-oxo-7-[4-(2-pyridinyl)-1-piperazinyl]-1,4-dihydro-3-quinolinecarboxylate]
Recombinant HCV NS5BCΔ21
  fold reduction in potency against NS5B relative to derivative 8: ~ 45 fold

## Nc1cc2c(=O)c(C(=O)OCc3ccc(Cl)cc3)cn(Cc3ccc(Cl)cc3)c2cc1N1CCN(c2nc3ccccc3s2)CC1 [Compound 9, 4-Chlorobenzyl 6-amino-7-[4-(1,3-benzothiazol-2-yl)-1-piperazinyl]-1-(4-chlorobenzyl)-4-oxo-1,4-dihydro-3-quinolinecarboxylate]
[1]
  Replicon assay on Huh5-2 SI (ratio of CC50 to EC50): >17

## Nc1cc2c(=O)c(C(=O)OCc3ccc(Cl)cc3)cn(Cc3ccc(Cl)cc3)c2cc1Cl [Compound 5, 4-Chlorobenzyl 6-amino-7-chloro-1-(4-chlorobenzyl)-4-oxo-1,4-dihydro-3-quinolinecarboxylate]
Recombinant HCV NS5BCΔ21; 25 µM compound concentration
  inhibition of NS5B RdRp activity in preliminary screening: inactive
[1]
  anti-HCV activity and toxicity in words: neither active nor toxic

## COc1cc2c(=O)c(C(=O)OCc3ccc(C)cc3)cn(Cc3ccc(C(F)(F)F)cc3F)c2cc1OC [Compound 2, reference compound]
[1]; Huh-5-2, data not shown
  selectivity of anti-HCV effect from dose-response curve: non-selective anti-HCV agent
NS5B
  IC50: 8 nM

## Nc1cc2c(=O)c(C(=O)OCc3ccc(Cl)cc3)cn(Cc3ccc(Cl)cc3)c2cc1N1CCN(c2ccccn2)CC1 [Compound 8, 4-Chlorobenzyl 6-amino-1-(4-chlorobenzyl)-4-oxo-7-[4-(2-pyridinyl)-1-piperazinyl]-1,4-dihydro-3-quinolinecarboxylate]
Huh-9-13 cells
  cellular morphology by microscopic analysis: cell aggregation

## Nc1cc2c(=O)c(C(=O)OCc3ccc(Cl)cc3)cn(Cc3ccc(Cl)cc3)c2cc1N1CCN(c2cccc(C(F)(F)F)c2)CC1 [Compound 10, 4-Chlorobenzyl 6-amino-1-(4-chlorobenzyl)-4-oxo-7-{4-[3-(trifluoromethyl)phenyl]-1-piperazinyl}-1,4-dihydro-3-quinolinecarboxylate]
[1]
  Replicon assay on Huh5-2 SI (ratio of CC50 to EC50): >6
